# In article PMC4718940, “Preclinical studies of 5-fluoro-2′-deoxycytidine and tetrahydrouridine in pediatric brain tumors” (Journal of Neuro-Oncology, 2015):
# Where two headings read alike, the source gives them in different places.
# Columns and labels:
# [1] = system: Mouse G3 MB Myc1 neurospheres; assay: 72 h dose response, CellTiter-Glo, mouse G3 MB neurospheres; format: cell-based; conditions: Mus musculus, Fig. 2a, read-out: EC50
# Procedure: (§1) In the Discovery Phase, the initial studies included the screen of a library of 9 compounds against epigenetic regulators at a single concentration and a dose-response on G3 MB, EP, and CPC tumor cells, as well as HEPG2 and BJ (Fig. 1). The library and dose response studies are described in the Supplementary Material.
# (§2) Briefly, cells (see Supplementary Table S2 for cell identity) were plated in 384-well plates (Corning) in 30 µL of supplemented neurobasal medium by using an automated plate filler (Wellmate, Matrix). After 24 hr, 28 nL of compound was transferred via pin tool, resulting in a final drug concentration of approximately 4 nM to 10 µM. After 72 hr of treatment, CellTiter-Glo reagent (Promega) was added, and the luminescence signal was measured using an automated Envision plate reader (Perkin-Elmer). Luminescence data were normalized by log10-transformation prior to calculating the percentage of inhibition using the following equation: 100 × (negative control mean − compound value)/(negative control mean − positive control mean). Our negative control represents cells treated with 0.1% DMSO with 0% inhibition. Cells treated with 35 µM cycloheximide (G3 MB tumor spheres) or 10 µM panobinostat (EP and CPC cells) were used as positive controls with 100% inhibition. The response of cells to the compounds were normalized to that of the positive controls present in each plate screened, shown in the Y axis of the dose-response curve. […] Unless otherwise reported, the y-axis for each dose response curve in the figures was independently normalized to the range from 0 to 1 and therefore reported as ‘relative growth inhibition’. High through put assay data were analyzed by using our in-house Robust Interpretation of Screening Experiments (RISE) application that was written in Pipeline Pilot (Accelrys, v. 8.5) and R (R Development Core Team).
# mouse EP neurospheres = assay: 72 h dose response, CellTiter-Glo, mouse EP neurospheres; format: cell-based; conditions: Mus musculus, Fig. 2a, read-out: EC50
# Procedure: as §1, §2
# [2] = system: mouse CPC neurospheres (CPC300); assay: 72 h dose response, CellTiter-Glo, mouse CPC neurospheres; format: cell-based; conditions: Mus musculus, Fig. 2a, read-out: EC50
# Procedure: as §1, §2
# [3] = system: Patient-derived xenograft of a human EP; assay: 72 h dose response, CellTiter-Glo, human EP PDX cells; format: cell-based; conditions: Fig. 2b
# [4] = system: tumorspheres derived from murine G3 MB, EP, and CPC; assay: In vitro growth inhibition, all three tumor cell types (summary); format: cell-based; conditions: Mus musculus, 72 hr
# [5] = system: Ink4a/Arf−/− neural stem cells; assay: FdCyd growth inhibition, neural stem cells; format: cell-based, mouse; conditions: Fig. 2c
# BJ cells = assay: FdCyd growth inhibition, BJ control cells; format: cell-based, human; conditions: Fig. 2c
# G3 MB (Myc1) cells = assay: FdCyd wash-out experiment, G3 MB; format: cell-based; conditions: Mus musculus
# Procedure: (§3) Myc1 and Myc2 G3 MB, EP, and CPC tumor cells (Supplementary Table 1) were plated in 96-well plates. After 24 h, 128 nL of a dilution series of a selected drug was transferred creating a final drug concentration of 0.5–9.3 µM. To assess the optimal exposure time, the drug was removed and replaced with fresh medium after 1, 3, 6, 10, 24, or 72 h (“wash-out”).
# (§4) In both experiments, 72 h after drug addition to cells, we added 100 µL of CellTiter-Glo reagent (Promega), and we read the luminescence signal. Data analysis used GraphPad Prism software (Version 5.04).
# CPC cells = assay: FdCyd wash-out experiment, CPC; format: cell-based; conditions: Mus musculus
# Procedure: as §3, §4
# [6] = In vitro plasma protein binding; format: in vitro ADME; conditions: data not shown, read-out: fu,p (unbound fraction, plasma protein)
# [7] = In vitro brain homogenate binding; format: in vitro ADME; conditions: data not shown, read-out: fu,b (unbound fraction, brain homogenate)
# [8] = Cerebral microdialysis, tECF disposition in tumor-bearing CD1 nude mice; format: in vivo; conditions: mouse, tumor extracellular fluid (dialysate) vs plasma, FdCyd 6 mg/kg with THU 100 mg/kg, read-out: tECF-to-plasma partition coefficient of unbound FdCyd (Kpt,uu), mean ± SD
# Procedure: Once a drug passed the Discovery Phase it was moved to the Pre-Clinical Phase, which included PK and PD studies (Fig. 1). The details of the plasma PK and cerebral microdialysis studies are provided in the Supplemental Materials.
# Cerebral microdialysis studies were performed in CD1 nude mice orthotopically transplanted with G3 MB, EP, or CPC tumors [,2,6]. Plasma and dialysate samples collected during microdialysis studies were analyzed by using LC-MS/MS to determine drug concentrations. Data obtained from microdialysis performed in individual tumor models were analyzed separately by using a compartmental approach. A model with a tECF compartment that was linked to the plasma compartment by using efflux (CL32) and influx (CL23) clearances was fit to the plasma and tumor ECF concentration-time data. These were obtained from previous plasma PK studies in all tumor models and from each microdialysis by using separate, tumor-specific population NONMEM 7.2.
# The tECF-to-plasma partition coefficient of unbound drug (Kpt,uu) was calculated as a ratio of CL23 to CL32. The mean ± SD of individual tECF-to-plasma partition coefficients of unbound FdCyd (Kpt,uu) in CD1 nude mice bearing G3 MB, EP, and CPC were 0.06 ± 0.02, 0.18 ± 0.14, and 0.09 ± 0.04, respectively. […] Inter-animal variability in Kpt,uu, however, was higher in EP tumors than in G3 MB and CPC tumors.The area under plasma concentration-time curve (AUCplasma) was calculated as the ratio of dosage to CL, whereas AUCtECF was calculated as the product of AUCplasma and Kpt,uu.
# EP tumors [9] = assay: In vivo proliferation, Ki67 immunohistochemistry, EP
# Procedure: (§5) To assess apoptosis and proliferation in vivo, G3 MB, EP, and CPC tumors were isolated from mice 3, 8, or 24 h after treatment with compound or vehicle, fixed in 10 % formalin, and sections were immunostained with antibodies to Caspase 3 (apoptosis) or Ki67 (proliferation).
# (§6) In vivo apoptosis and proliferation were performed on G3 MB, EP, and CPC tumors isolated from mice 3, 8, or 24 hr after treatment with compound or vehicle (saline). Tumors were fixed in 10% formalin. Sections (4-micron) were immunostained with antibodies to Caspase 3 (CP229C, BioCare Medical, Concorde, CA) to detect apoptotic cells, or Ki67 (ThermoShandon, RM9106) to detect proliferation. The number of positive cells for each stain was normalized to the total number of cells.
# (§7) Mice bearing G3 MB, EP, or CPC tumors were harvested 3, 8, or 24 hr after IP injection of vehicle (V) or FdCyd + THU (FdCyd). Fixed brains were sliced and stained for Ki67. The percentage of positive cells was calculated based on total number of cells.
# CPC tumors = assay: In vivo proliferation, Ki67 immunohistochemistry, CPC
# Procedure: as §5, §6, §7
# EP tumors [10] = assay: In vivo apoptosis, Caspase 3 immunohistochemistry, EP
# Procedure: as §5, §6
# Mice bearing G3 MB, EP, or CPC tumors were harvested 3, 8, or 24 hr after IP injection of vehicle (V) or FdCyd + THU (FdCyd). Fixed brains were sliced and stained for caspase 3. The percentage of positive cells was calculated based on total number of cells. SD= standard deviation.
# [11] = 1 h exposure then wash-out, read at 72 h, read-out: EC50 after 1 h FdCyd exposure
# [12] = 72 h, wash-out, 1st of 4 values listed for the remaining time points (3, 6, 10, 24, 72 h), read-out: EC50, longer exposure
# [13] = 72 h, wash-out, 2nd of 4 values listed for the remaining time points (3, 6, 10, 24, 72 h), read-out: EC50, longer exposure
# [14] = 72 h, wash-out, 3rd of 4 values listed for the remaining time points (3, 6, 10, 24, 72 h), read-out: EC50, longer exposure
# [15] = 72 h, wash-out, 4th of 4 values listed for the remaining time points (3, 6, 10, 24, 72 h), read-out: EC50, longer exposure
compound,measurement,setting,value
"Nc1nc(=O)n([C@H]2C[C@H](O)[C@@H](CO)O2)cc1F [FdCyd, 5-fluoro-2′-deoxycytidine]",EC50,[1],1.7 nM
same,EC50,mouse EP neurospheres,4 nM
same,EC50,[2],5.6 nM
same,EC50,[3],8.3 nM
same,EC50,[4],1 to 6 nM
same,sensitivity to FdCyd (growth inhibition),[5],showed sensitivity
same,sensitivity to FdCyd (growth inhibition),BJ cells,not
same,EC50,G3 MB (Myc1) cells; [11],8 ± 2 nM
same,EC50,G3 MB (Myc1) cells; [12],5 nM
same,EC50,G3 MB (Myc1) cells; [13],4 nM
same,EC50,G3 MB (Myc1) cells; [14],2.3 nM
same,EC50,G3 MB (Myc1) cells; [15],1 nM
same,EC50,CPC cells; [11],63 ± 28 nM
same,EC50,CPC cells; [12],58 nM
same,EC50,CPC cells; [13],44 nM
same,EC50,CPC cells; [14],31 nM
same,EC50,CPC cells; [15],1 nM
same,fraction unbound,[6],~1
same,fraction unbound,[7],~1
same,Kp,[8]; mice bearing CPC,0.09 ± 0.04
same,Kp,[8]; mice bearing EP,0.18 ± 0.14
same,Kp,[8]; mice bearing G3 MB,0.06 ± 0.02
same,Ki67 % of positive cells,"EP tumors [9]; 3 hr after IP injection of FdCyd + THU, vehicle 81.79",77.06%
same,Ki67 % of positive cells,"EP tumors [9]; 8 hr after IP injection of FdCyd + THU, vehicle 80.10",72.88%
same,Ki67 % of positive cells,"EP tumors [9]; 24 hr after IP injection of FdCyd + THU, vehicle 68.41",72.62%
same,Ki67 % of positive cells,"CPC tumors; 3 hr after IP injection of FdCyd + THU, vehicle 59.03",47.82%
same,Ki67 % of positive cells,"CPC tumors; 8 hr after IP injection of FdCyd + THU, vehicle 62.25",23.4%
same,Ki67 % of positive cells,"CPC tumors; 24 hr after IP injection of FdCyd + THU, vehicle 53.18",61.3%
same,Caspase-3 % of positive cells,"EP tumors [10]; 3 hr after IP injection of FdCyd + THU, vehicle 0.9975",1.416%
same,Caspase-3 % of positive cells,"EP tumors [10]; 8 hr after IP injection of FdCyd + THU, vehicle 1.110",1.210%
same,Caspase-3 % of positive cells,"EP tumors [10]; 24 hr after IP injection of FdCyd + THU, vehicle 1.427",1.030%
